For 2 compounds, IC50 and melting point results are on record in patent publication US7517902B2, “Substituted indazoles, compositions containing the same, and the preparation and use thereof” (Aventis Pharma S.A., priority 2004, dated 2009).

Molecules are shown by their SMILES.

One data set concerns the target T1, human KDR enzyme (Homo sapiens, UniProt P35968).
T1 construct: The cytoplasmic domain of the human KDR enzyme was cloned in the form of a GST fusion; GST; made in house; host or cells: SF21 insect cells (baculovirus, pFastBac)
In words: KDR substrate phosphorylation assay (scintillation, 96-well plate). Format: biochemical. The method, then:
The inhibitory effect of the compounds is determined in an assay of substrate phosphorylation by the KDR enzyme in vitro using a scintillation technique (96-well plate, NEN).
The cytoplasmic domain of the human KDR enzyme was cloned in the form of a GST fusion into the baculovirus expression vector pFastBac. The protein was expressed in SF21 cells and purified to approximately 60% homogeneity.
The KDR kinase activity is measured in 20 mM MOPS, 10 mM MgCl2, 10 mM MnCl2, 1 mM DTT, 2.5 mM EGTA, 10 mM β-glycerophosphate, pH=7.2, in the presence of 10 mM MgCl2, 100 μM Na3VO4, 1 mM NaF. 10 μl of the compound are added to 70 μl of kinase buffer, containing 100 ng of KDR enzyme at 4° C. The reaction is triggered by adding 20 μl of solution containing 2 μg of substrate (SH2-SH3 fragment of PLCγ expressed in the form of a GST fusion protein), 2 μCi γ^33P[ATP] and 2 μM cold ATP. After 1 hour of incubation at 37° C., the reaction is stopped by adding 1 volume (100 μl) of 200 mM EDTA. The incubation buffer is withdrawn and the wells are washed three times with 300 μl of PBS. The radioactivity is measured in each well using a Top Count NXT radioactivity counter (Packard).
The background noise is determined by measuring the radioactivity in four different wells containing the radioactive ATP and the substrate alone.
A control for total activity is measured in four different wells containing all of the reagents (γ^33P-[ATP], KDR and PLCγ substrate), but in the absence of compound.
The inhibition of KDR activity with the compound of the invention is expressed in percentage inhibition of the control activity determined in the absence of compound.
The compound SU5614 (Calbiochem) (1 μM) is included in each plate as an inhibition control.

For the next data set, the target named is T2, human Tie2 (Homo sapiens, UniProt Q02763).
T2 construct: amino acids of the intracellular domain 776-1124; made in house
In words: Tie2 assay of PLC phosphorylation (FlashPlate). Format: biochemical. The note with it: read-out: IC 50 TIE2. The protocol:
The coding sequence of human Tie2, corresponding to the amino acids of the intracellular domain 776-1124, was generated by PCR, using the cDNA isolated from human placenta as a model. This sequence was introduced into a baculovirus expression vector pFastBacGT in the form of a GST fusion protein.
The inhibitory effect of the molecules is determined in an assay of PLC phosphorylation by Tie2 in the presence of GST-Tie2 purified to approximately 80% homogeneity. The substrate is composed of the SH2-SH3 fragments of PLC expressed in the form of a GST fusion protein.
The kinase activity of Tie2 is measured in a 20 mM MOPS buffer, pH 7.2, containing 10 mM MgCl2, 10 mM MnCl2, 1 mM DTT, 10 mM of glycerol-phosphate. In a 96-well FlashPlate plate, kept on ice, a reaction mixture is deposited which is composed of 70 μl of kinase buffer containing 100 ng of GST-Tie2 enzyme per well. Subsequently 10 μl of the test molecule diluted to a concentration of 10% maximum in DMvSO are added. For a given concentration, each measurement is carried out in quadruplicate. The reaction is initiated by adding 20 μl of solution containing 2 μg of GST-PLC, 2 μM of cold ATP and 1 μCi of ^33P[ATP]. After 1 hour of incubation at 37° C., the reaction is terminated by adding 1 volume (100 μl) of 200 mM EDTA. Following removal of the incubation buffer, the wells are washed three times with 300 μl of PBS. The radioactivity is measured on a Wallac MicroBeta 1450.
The inhibition of Tie2 activity is calculated and expressed as a percentage inhibition relative to the control activity determined in the absence of compound.

The next data set has as its target T3, Aurora2 (Homo sapiens, UniProt O14965).
T3 construct: Aurora 2: whole recombinant protein comprising an N-terminal histidine tail; His tag (histidine tail) (N); made in house; host or cells: E. coli
T3 sequence (O14965 1-403): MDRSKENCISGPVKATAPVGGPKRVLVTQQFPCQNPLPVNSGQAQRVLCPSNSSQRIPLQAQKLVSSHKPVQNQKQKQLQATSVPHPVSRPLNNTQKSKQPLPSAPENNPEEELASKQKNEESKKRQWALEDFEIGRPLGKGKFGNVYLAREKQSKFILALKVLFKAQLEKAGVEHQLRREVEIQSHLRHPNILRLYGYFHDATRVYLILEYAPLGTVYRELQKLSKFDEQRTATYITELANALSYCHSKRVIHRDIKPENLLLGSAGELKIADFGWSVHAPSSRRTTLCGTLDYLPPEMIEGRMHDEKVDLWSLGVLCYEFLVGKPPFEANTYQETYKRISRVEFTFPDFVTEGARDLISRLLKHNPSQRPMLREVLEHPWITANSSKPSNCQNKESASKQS
As to the kind of experiment: Aurora2 enzyme assay, NuMA substrate phosphorylation (Flashplate). The settings on record: read-out: IC 50 Aurora2. The class given is biochemical. The protocol: The inhibitory effect of compounds with respect to the kinases Aurora1 and Aurora2 is determined by an enzyme assay employing radioactivity detection.
The kinase activity of Aurora 1 and Aurora 2 is evaluated by the phosphorylation of the substrate Numa-histidine in the presence of radiolabeled ATP ([^33P]ATP), using 96-well Flashplate plates in which nickel chelate is fixed to the surface of the microplate. The amount of ^33P phosphate incorporated in the NuMA substrate is proportional to the activity of the enzyme Aurora1 or Aurora2.
The proteins are produced in the protein production laboratory of the SanofiAventis group.
Aurora 2: whole recombinant protein comprising an N-terminal histidine tail, expressed in E. coli and purified to more than 82%.
NuMA (nuclear protein that associates with the mitotic apparatus) fragment of 424 amino acids, expressed in E. coli, whose N-terminal end has been labeled with histidine and used as a substrate for the two Aurora enzymes.
The microplates used are 96-well Flash-Plate plates with nickel chelate (Perkin Elmer, model SMP107).
The products for evaluation are incubated in a reaction volume of 100 μL per well in the presence of 10 nM of Aurora 1 or Aurora 2, 500 nM of NuMA substrate in a buffer composed of 50 mM of Tris/HCl (pH 7.5), 50 mM NaCl, 5 mM MgCl2 (Aurora-B) or 10 mM MgCl2 (Aurora-A) and 1 mM of DTT, at 37° C.
In each well, 80 μL of the enzyme/substrate incubation buffer are distributed, followed by 10 μL of the product to be evaluated, in variable concentrations. The reaction is initiated by adding 1 μM of final ATP containing 0.2 μCi of [^33P]ATP (10 μL). After 30 minutes of incubation, the reaction is terminated by simply removing the reaction buffer and each well is washed twice with 300 μl of the Tris/HCl buffer. The radioactivity is then measured in each well by means of a scintillation apparatus, Packard, Top count model.
The control enzyme activity of Aurora is expressed by the number of counts per minute obtained within 30 minutes, after deduction of the background noise (reaction mixture not containing the enzyme). The evaluation of the various test products is expressed in percentage inhibition of the Aurora activity relative to the control.

T2 sequence (Q02763 776-1124): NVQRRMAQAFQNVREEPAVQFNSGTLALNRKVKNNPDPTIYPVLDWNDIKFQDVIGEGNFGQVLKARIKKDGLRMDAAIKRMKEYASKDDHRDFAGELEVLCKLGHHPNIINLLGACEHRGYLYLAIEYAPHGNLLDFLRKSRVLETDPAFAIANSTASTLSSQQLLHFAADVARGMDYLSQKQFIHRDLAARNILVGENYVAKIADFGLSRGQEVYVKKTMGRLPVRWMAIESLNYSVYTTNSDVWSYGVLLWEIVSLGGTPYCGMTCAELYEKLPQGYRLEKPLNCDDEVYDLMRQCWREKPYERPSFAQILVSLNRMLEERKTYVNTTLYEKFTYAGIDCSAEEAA
T1 sequence (P35968 786-1356 limits assumed): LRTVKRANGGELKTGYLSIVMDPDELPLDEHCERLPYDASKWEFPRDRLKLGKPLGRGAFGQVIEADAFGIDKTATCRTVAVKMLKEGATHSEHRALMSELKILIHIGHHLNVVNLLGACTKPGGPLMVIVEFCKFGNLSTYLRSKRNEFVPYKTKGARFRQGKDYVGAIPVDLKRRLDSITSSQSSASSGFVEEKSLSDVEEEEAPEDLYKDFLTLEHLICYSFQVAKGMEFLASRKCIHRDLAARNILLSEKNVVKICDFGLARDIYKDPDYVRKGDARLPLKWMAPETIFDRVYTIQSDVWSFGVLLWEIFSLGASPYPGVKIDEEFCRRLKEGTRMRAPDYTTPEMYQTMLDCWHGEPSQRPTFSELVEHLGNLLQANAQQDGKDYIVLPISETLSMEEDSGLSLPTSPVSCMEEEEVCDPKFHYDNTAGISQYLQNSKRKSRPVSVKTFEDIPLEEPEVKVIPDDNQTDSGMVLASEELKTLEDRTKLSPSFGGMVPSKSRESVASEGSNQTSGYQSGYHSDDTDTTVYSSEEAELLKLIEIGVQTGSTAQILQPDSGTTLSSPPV

Take `O=C(Nc1ccc(-c2ccc3c(NC(=O)c4ccco4)n[nH]c3c2F)cc1)Nc1cc(C(F)(F)F)ccc1F` [Example 17, 1-(4-{7-Fluoro-3-[(furan-2-yl)carbonylamino]-1H-indazol-6-yl}phenyl)-3-(2-fluoro-5-trifluoromethylphenyl)urea]: the melting point fell in the range of 152 to 153 °C. At human KDR enzyme, this compound had an IC50 of 29 nM. The IC50 at human Tie2 was 8 nM. The IC50 on Aurora2 was 60 nM.
As for `O=C(Nc1ccc(-c2ccc3c(NC(=O)c4ccccc4)n[nH]c3c2F)cc1)Nc1cc(C(F)(F)F)ccc1F` [Example 18, 1-(4-{7-Fluoro-3-[phenylcarbonylamino]-1H-indazol-6-yl}phenyl)-3-(2-fluoro-5-trifluoromethylphenyl)urea], the melting point lay within 206 to 207 °C. In addition, the IC50 at human KDR enzyme was 77 nM. On human Tie2, the IC50 was found to be 26 nM. For the same compound, the IC50 on Aurora2 was determined as 346 nM.
